Structures can show the parent of a compound that is named as a salt.
Columns and labels:
Assay in all cases: In vitro antibacterial activity (MIC, agar dilution)
Type in all cases: cell-based
[1] = system: Klebsiella pneumoniae ATCC 8045; conditions: ATCC8045; Klebsiella pneumoniae ATCC 8045; agar dilution; read-out: MIC
Description: (§1) Each plate was inoculated with 1:100 (or 1:10 for slow-growing strains, primarily Micrococcus and Streptococcus) dilutions of up to 32 different microorganisms, using a Steers replicator block calibrated to deliver approximately 10^4 colony forming units (CFUs). The inoculated plates were incubated at from about 35° C. to about 37° C. for approximately 20-24 hours. In o addition, a control plate using BHI agar containing no test compound was prepared and incubated at the beginning and at the end of each test. The quinolone antibacterial ciprofloxacin was used as a control ("Cntl").
(§2) The MIC was defined as the lowest concentration of test compound yielding no growth (a slight haze or sparsely isolated colonies at the inoculum spot) as compared to the growth control containing no test compound.

[2] = system: Strep. pyogenes 930 CONST; conditions: Streptococcus pyogenes
Description: as §1, §2

[3] = system: P. aeruginosa A5007; conditions: Pseudomonas aeruginosa; P. aeruginosa A5007; agar dilution; read-out: MIC
Description: as §1, §2

[4] = system: Escherichia coli Juhl
Description: as §1, §2

[5] = system: P. aeruginosa 2862; conditions: Pseudomonas aeruginosa; P. aeruginosa 2862; agar dilution; read-out: MIC
Description: as §1, §2

[6] = system: Myco. smegmatis ATCC 114; conditions: Mycolicibacterium smegmatis, ATCC114
Description: as §1, §2

[7] = system: Staph. aureus 1775 Cipro.R.; conditions: Staphylococcus aureus
Description: as §1, §2

[8] = system: Acinetobacter calcoaceticus CMX 669; conditions: CMX669; Acinetobacter calcoaceticus CMX 669; agar dilution; read-out: MIC
Description: as §1, §2

[9] = system: E. coli SS; conditions: Escherichia coli; E. coli SS; agar dilution; read-out: MIC
Description: as §1, §2

[10] = system: Staph. aureus CMX 553; conditions: Staphylococcus aureus, CMX553
Description: as §1, §2

[11] = system: M. luteus ATCC 9341; conditions: Micrococcus luteus, ATCC9341; M. luteus ATCC 9341; agar dilution; read-out: MIC
Description: as §1, §2

[12] = system: P. aeruginosa K799/WT; conditions: Pseudomonas aeruginosa; P. aeruginosa K799/WT; agar dilution; read-out: MIC
Description: as §1, §2

[13] = system: Entero. faecium ATCC 8043; conditions: Enterococcus faecium, ATCC8043; Entero. faecium ATCC 8043; agar dilution; read-out: MIC
Description: as §1, §2

[14] = system: P. aeruginosa BMH 10; conditions: Pseudomonas aeruginosa, BMH10; P. aeruginosa BMH 10; agar dilution; read-out: MIC
Description: as §1, §2

[15] = system: Providencia stuartii CMX 640; conditions: CMX640
Description: as §1, §2

[16] = system: E. coli KNK 437; conditions: Escherichia coli, KNK437; E. coli KNK 437; agar dilution; read-out: MIC
Description: as §1, §2

[17] = system: P. aeruginosa K799/61; conditions: Pseudomonas aeruginosa
Description: as §1, §2

[18] = system: Staph. aureus ATCC 6538P; conditions: Staphylococcus aureus, ATCC6538P
Description: as §1, §2

[19] = system: Staph. aureus 642A; conditions: Staphylococcus aureus
Description: as §1, §2

[20] = system: E. coli H560; conditions: Escherichia coli; E. coli H560; agar dilution; read-out: MIC
Description: as §1, §2

[21] = system: E. coli DC-2; conditions: Escherichia coli, DC2; E. coli DC-2; agar dilution; read-out: MIC
Description: as §1, §2

[22] = system: Staph. aureus NCTC10649; conditions: Staphylococcus aureus
Description: as §1, §2

[23] = system: Candida albicans CCH 442; conditions: CCH442; Candida albicans CCH 442; agar dilution; read-out: MIC
Description: as §1, §2

[24] = system: Nocardia asteroides ATCC 9970; conditions: ATCC9970; Nocardia asteroides ATCC 9970; agar dilution; read-out: MIC
Description: as §1, §2

[25] = system: Enter. aerogenes ATCC 13048; conditions: Klebsiella aerogenes, ATCC13048
Description: as §1, §2

[26] = system: M. luteus ATCC 4698; conditions: Micrococcus luteus, ATCC4698; M. luteus ATCC 4698; agar dilution; read-out: MIC
Description: as §1, §2

[27] = system: Staph. aureus A5177; conditions: Staphylococcus aureus
Description: as §1, §2

[28] = system: Strep. bovis A5169; conditions: Streptococcus equinus; Strep. bovis A5169; agar dilution; read-out: MIC
Description: as §1, §2

[29] = system: Pseudomonas cepacia 296I; conditions: Burkholderia cepacia
Description: as §1, §2

[30] = system: Staph. aureus 5278; conditions: Staphylococcus aureus
Description: as §1, §2

[31] = system: P. aeruginosa 5263; conditions: Pseudomonas aeruginosa; P. aeruginosa 5263; agar dilution; read-out: MIC
Description: as §1, §2

[32] = system: Staph. epidermidis 3519; conditions: Staphylococcus epidermidis
Description: as §1, §2

[33] = system: Strep. pyogenes 2458 INDUC; conditions: Streptococcus pyogenes
Description: as §1, §2

[34] = system: Strep. agalactiae CMX 508; conditions: Streptococcus agalactiae, CMX508
Description: as §1, §2

[35] = system: Strep. pyogenes EES61; conditions: Streptococcus pyogenes
Description: as §1, §2

With `NC1CCN(c2c(F)cn3c(=O)c(C(=O)O)cc4c3c2Oc2ccccc2-4)C1` (centres unmarked) [Example 2, 1-(3-amino-pyrrolidinyl)-2-fluoro-5H-5-oxo-benzo[5,6]pyrano[2.3.4-ij]quinolizine-6-carboxylic acid hydrochloride] the MIC [1] was 1.56 µg/mL, the MIC [2] was 3.1 µg/mL and the MIC [3] was 100 µg/mL. For the same molecule, the MIC [4] was 3.1 µg/mL, the MIC [5] was over 100 µg/mL and the MIC [6] was 3.1 µg/mL. The MIC [7] was 6.2 µg/mL, the MIC [8] was 6.2 µg/mL and the MIC [9] was 0.78 µg/mL. It also gave an MIC [10] of 6.2 µg/mL, an MIC [11] of 3.1 µg/mL and an MIC [12] of 50 µg/mL. The MIC [13] was 6.2 µg/mL, the MIC [14] was 25 µg/mL and the MIC [15] was over 100 µg/mL. For the same molecule, the MIC [16] was 3.1 µg/mL, the MIC [17] was 6.2 µg/mL and the MIC [18] was 6.2 µg/mL. The MIC [19] was 6.2 µg/mL, the MIC [20] was 3.1 µg/mL and the MIC [21] was 12.5 µg/mL. It also gave an MIC [22] of 3.1 µg/mL, an MIC [23] of over 100 µg/mL and an MIC [24] of 3.1 µg/mL. The MIC [25] was 6.2 µg/mL, the MIC [26] was 3.1 µg/mL and the MIC [27] was 6.2 µg/mL. The MIC [28] was 3.1 µg/mL, the MIC [29] was over 100 µg/mL and the MIC [30] was 6.2 µg/mL. For the same molecule, the MIC [31] was over 100 µg/mL, the MIC [32] was 3.1 µg/mL and the MIC [33] was 3.1 µg/mL. For the same molecule, the MIC [34] was 3.1 µg/mL and the MIC [35] was 3.1 µg/mL.

From patent US5618813A, “Benzo[5.6]pyrano[2.3.4-ij]quinolizine and benzo[5.6]thiopyrano[2.3.4-ij]quinolizine derivatives as antibacterial and antineoplastic agents” (Abbott Laboratories, priority 1995, dated 1997)
